How the values were obtained:
[1] = cited from earlier work
[2] = cited from earlier work; remark: listed apart in the source
Caco-2 cell = Caco-2 cell apparatus; cited from earlier work
Caco-2 cell monolayers = assay: Caco-2 cell analysis: lercanidipine permeation with different concentrations of Polysorbate 80 (Tween 80); assay type: in vitro ADME
Text: The objective of this study was to investigate the effects of surfactant on the permeability characteristics of lercanidipine across Caco-2 cell monolayers. Caco-2 cell monolayers have been used as a model of intestinal mucosa for predicting oral drug absorption (P. Artursson. Epithelial transport of drugs in cell culture. I: A model for studying the passive diffusion of drugs over intestinal absorptive (Caco-2) cells. JPharm (1990)).
Transport experiments for the permeation characteristics of lercanidipine in the presence of different concentrations of Polysorbate 80 (Tween 80) were conducted as follows. […] The samples were collected and analyzed for lercanidipine.
The permeation characteristics lercanidipine across Caco-2 cell monolayers in the presence of different concentrations of Tween 80 were analyzed using four dosing solutions. […]
Papp values will be calculated using the equation: Papp=ΔQ/Δt/(A*C0) where ΔQ/Δt is the linear appearance rate of mass in the receiver solution, A is the filter/cell surface area (1 cm^2 for 12-well system), and C0 is the initial concentration of the test compounds.

[3] = species not given; cited from earlier work

Row | Compound | time of peak plasma level following dosage ([1]; oral administration) | increase of amount of lercanidipine absorbed with food ([1]; simultaneous intake of food (especially high fat) vs administration without food) | solubility ([2]; at pH 5 and above) | aqueous solubility ([2]; water) | Papp (Caco-2 cell) | increase in Caco-2 permeability upon the addition of surfactant (Caco-2 cell monolayers; 50 μg/ml Lerc in HBSS, pH 6.8, Tween 80 added vs none) | change of Caco-2 permeability at higher surfactant (Caco-2 cell monolayers; surfactant in transport buffer increased ten fold from 0.02 to 0.2) | plasma concentration (AUCo-t), Form II compared to Form I [3] | time to maximum concentration (Tmax), one form compared to the other [3]
1 | COC(=O)C1=C(C)NC(C)=C(C(=O)OC(C)(C)CN(C)CCC(c2ccccc2)c2ccccc2)C1c1cccc([N+](=O)[O-])c1 (stereo not shown) [lercanidipine, methyl 1,1,N-trimethyl-N-(3,3-diphenylpropyl)-2-aminoethyl 1,4-dihydro-2,6-dimethyl-4-(3-nitrophenyl)pyridine-3,5-dicarboxylate] | 1 to 3 h | between three and four times | less than 20 μg/ml | about 5 μg/ml | about 0.5×10^−7 cm/s | three fold increase in permeability | permeability of lercanidipine decreases |  | 
2 | COC(=O)C1=C(C)NC(C)=C(C(=O)OC(C)(C)CN(C)CCC(c2ccccc2)c2ccccc2)C1c1cccc([N+](=O)[O-])c1.Cl (stereo not shown) [Form II] |  |  |  |  |  |  |  | higher plasma concentration | delayed time of maximum concentration
3 | COC(=O)C1=C(C)NC(C)=C(C(=O)OC(C)(C)CN(C)CCC(c2ccccc2)c2ccccc2)C1c1cccc([N+](=O)[O-])c1.Cl (stereo not shown) [Form I] |  |  |  |  |  |  |  |  | shorter time to maximum concentration

From patent US20060134212A1, “Lercanidipine immediate release compositions” (Forest Laboratories, Inc., priority 2004, published 2006)
